Experiment: xn = mol fraction of the nth substance listed
Conditions: 298.15 K, Liquid

ClCCCCCCCl [1,6-dichlorohexane] + CN1CCCC1=O
mass density [kg/m3]
Conditions	x2 = 0.1182	x2 = 0.2016	x2 = 0.3079	x2 = 0.4114	x2 = 0.5049	x2 = 0.6008	x2 = 0.7023	x2 = 0.8009	x2 = 0.8972
100 kPa	1060.7	1058.4	1055.4	1052	1049	1045.6	1041.6	1037.5	1033.1
500 kPa	1060.9	1058.7	1055.6	1052.3	1049.2	1045.8	1041.8	1037.7	1033.4
1000 kPa	1061.3	1059.1	1056	1052.6	1049.5	1046.1	1042.1	1038	1033.6
1500 kPa	1061.6	1059.4	1056.3	1052.9	1049.8	1046.4	1042.4	1038.3	1033.9
2000 kPa	1062	1059.7	1056.6	1053.3	1050.1	1046.7	1042.7	1038.6	1034.2
2500 kPa	1062.3	1060	1056.9	1053.6	1050.5	1047	1043	1038.9	1034.4
3000 kPa	1062.6	1060.4	1057.3	1053.9	1050.8	1047.3	1043.3	1039.1	1034.7
3500 kPa	1063	1060.8	1057.6	1054.3	1051.1	1047.6	1043.6	1039.4	1035
4000 kPa	1063.3	1061.1	1057.9	1054.6	1051.4	1047.9	1043.9	1039.7	1035.3
4500 kPa	1063.7	1061.4	1058.3	1054.9	1051.7	1048.2	1044.2	1040	1035.5
5000 kPa	1064	1061.8	1058.6	1055.2	1052	1048.5	1044.4	1040.3	1035.8
5500 kPa	1064.4	1062.1	1058.9	1055.5	1052.4	1048.9	1044.7	1040.5	1036.1
5900 kPa	–	–	–	–	–	1049.2	–	–	–
6000 kPa	1064.7	1062.4	1059.4	1055.8	1052.7	–	1045	1040.8	1036.4
6500 kPa	1065	1062.8	1059.6	1056.1	1053	1049.4	1045.3	1041.1	1036.6
7000 kPa	1065.4	1063.1	1059.9	1056.5	1053.3	1049.7	1045.6	1041.4	1036.9
7500 kPa	1065.7	1063.5	1060.2	–	1053.6	1050	1045.9	1041.7	1037.2
7600 kPa	–	–	–	1056.7	–	–	–	–	–
8000 kPa	1066.1	1063.7	1060.5	1057.1	1054	1050.3	1046.2	1041.9	1037.4
8500 kPa	1066.5	1064	1060.8	1057.4	1054.2	1050.6	1046.5	1042.2	1037.8
8900 kPa	1066.7	–	–	–	–	–	–	–	–
9000 kPa	–	1064.4	1061.2	1057.7	1054.5	1050.9	1046.8	1042.5	1038
9500 kPa	1067	1064.8	1061.5	1058	1054.9	1051.2	1047.1	1042.8	1038.2
10000 kPa	1067.4	1065.2	1061.9	1058.4	–	–	–	–	–
